# Test results: ChEMBL document CHEMBL1201862, “PubChem BioAssay data set” (2004)
#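 48-hour exposure; five concentrations; linearly interpolated endpoints. Abbreviation: GI50, concentration required for 50% inhibition of growth.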 Active and inactive are the calls of the source. No stated cut-off is given here; in the data, active = GI50 up to about 1.1 µM and inactive = higher.
# Tests used:
# Test in all cases: inhibition of tumour cell growth, NCI panel, 48 h
# [1] = system: 786-0
# [2] = system: A549
# [3] = system: CAKI-1
# [4] = system: DLD-1
# [5] = system: HL-60
# [6] = system: HT-29
# [7] = system: M14
# [8] = system: SF-268
# [9] = system: SF-295
# [10] = system: SF-539
# [11] = system: SK-MEL-2
# [12] = system: SK-MEL-5
# [13] = system: SNB-75
# [14] = system: TK-10
# [15] = system: UACC-257
# [16] = system: SNB-19
# [17] = system: DU-145
# [18] = system: MDA-MB-231
# [19] = system: MDA-N
# [20] = system: T47D
Structure (SMILES),GI50 [1],GI50 [2],GI50 [3],GI50 [4],GI50 [5],GI50 [6],GI50 [7],GI50 [8],GI50 [9],GI50 [10],GI50 [11],GI50 [12],GI50 [13],GI50 [14],GI50 [15],GI50 [16],GI50 [17],GI50 [18],GI50 [19],GI50 [20]
O=C1C2=C(C(c3ccccc3)=C1c1ccccc1)c1ccccc1C1(c3ccccc3)C2=C(O)C(c2ccccc2)=C1c1ccccc1 (stereo not given),> 100 µM (inactive),> 100 µM (inactive),> 100 µM (inactive),> 100 µM (inactive),> 100 µM (inactive),> 100 µM (inactive),> 100 µM (inactive),> 100 µM (inactive),> 100 µM (inactive),> 100 µM (inactive),> 100 µM (inactive),> 100 µM (inactive),> 100 µM (inactive),> 100 µM (inactive),> 100 µM (inactive),,,,,
CCN(CC)CCNC(=O)c1nn(C)c(=S)[nH]c1=S,> 100 µM (inactive),> 100 µM (inactive),> 100 µM (inactive),> 100 µM (inactive),> 100 µM (inactive),> 100 µM (inactive),> 100 µM (inactive),,> 100 µM (inactive),> 100 µM (inactive),> 100 µM (inactive),> 100 µM (inactive),> 100 µM (inactive),> 100 µM (inactive),> 100 µM (inactive),> 100 µM (inactive),,,,
O=C(/C=C\c1cccc2ccccc12)c1cccc2ccccc12,4.4 µM (inactive),13.1 µM (inactive),8.07 µM (inactive),5.43 µM (inactive),3.64 µM (inactive),5.25 µM (inactive),12.2 µM (inactive),,14.7 µM (inactive),14.3 µM (inactive),18.6 µM (inactive),12.7 µM (inactive),5.37 µM (inactive),> 10 µM (inactive),16 µM (inactive),10.6 µM (inactive),,,,
N#CC(NNC(=O)c1ccccc1O)c1ccccc1 (stereo not given),2.5 µM (inactive),0.423 µM (active),2.91 µM (inactive),2.63 µM (inactive),1.8 µM (inactive),26 µM (inactive),0.942 µM (active),0.422 µM (active),2.89 µM (inactive),3.33 µM (inactive),2.55 µM (inactive),16.1 µM (inactive),0.38 µM (active),4.3 µM (inactive),5.94 µM (inactive),,,,,
CCOC(=O)NC(=O)c1cn(CCN2CCN(C(=O)CCCCCCCCCCC(=O)N3CCN(CCn4cc(C(=O)NC(=O)OCC)c(=O)[nH]c4=O)CC3)CC2)c(=O)[nH]c1=O,> 100 µM (inactive),> 100 µM (inactive),> 100 µM (inactive),> 100 µM (inactive),,> 100 µM (inactive),> 100 µM (inactive),> 100 µM (inactive),36.8 µM (inactive),> 100 µM (inactive),,> 100 µM (inactive),> 100 µM (inactive),> 100 µM (inactive),> 100 µM (inactive),> 100 µM (inactive),,,,
CCCCCC/C=C/CCCCCCCc1cccc(O)c1C(=O)O,> 100 µM (inactive),50.4 µM (inactive),> 100 µM (inactive),43.6 µM (inactive),> 100 µM (inactive),14.4 µM (inactive),> 100 µM (inactive),26.9 µM (inactive),> 100 µM (inactive),59.4 µM (inactive),> 100 µM (inactive),,> 100 µM (inactive),70.3 µM (inactive),49.4 µM (inactive),34.7 µM (inactive),,,,
On1c(-c2ccccc2)c(-c2c(-c3ccccc3)n(O)c3ccccc23)c2ccccc21,14.9 µM (inactive),32.4 µM (inactive),,54.6 µM (inactive),32.7 µM (inactive),45.7 µM (inactive),,55 µM (inactive),22.1 µM (inactive),24.8 µM (inactive),25.8 µM (inactive),21.9 µM (inactive),27.5 µM (inactive),38 µM (inactive),26.5 µM (inactive),67.5 µM (inactive),,,,
O=C(COC(=O)c1cccc2c(=O)c3ccccc3[nH]c12)Nc1ccc(C(=O)O)cc1,> 100 µM (inactive),> 100 µM (inactive),> 100 µM (inactive),> 100 µM (inactive),94 µM (inactive),> 100 µM (inactive),> 100 µM (inactive),> 100 µM (inactive),> 100 µM (inactive),> 100 µM (inactive),,> 100 µM (inactive),42.5 µM (inactive),> 10 µM (inactive),> 100 µM (inactive),> 100 µM (inactive),,,,
CC(C)(C)CC(C)(C)c1cc2c(O)c(c1)Cc1cc(C(C)(C)CC(C)(C)C)cc(c1O)Cc1cc(C(C)(C)CC(C)(C)C)cc(c1O)Cc1cc(C(C)(C)CC(C)(C)C)cc(c1O)Cc1cc(C(C)(C)CC(C)(C)C)cc(c1O)Cc1cc(C(C)(C)CC(C)(C)C)cc(c1O)C2,> 100 µM (inactive),> 100 µM (inactive),,> 100 µM (inactive),> 100 µM (inactive),> 100 µM (inactive),> 100 µM (inactive),> 100 µM (inactive),> 100 µM (inactive),> 100 µM (inactive),> 100 µM (inactive),> 100 µM (inactive),> 100 µM (inactive),> 100 µM (inactive),> 100 µM (inactive),> 100 µM (inactive),,,,
CN(C)CC/C(=N\Nc1ccc([N+](=O)[O-])cc1)c1ccccc1,12.6 µM (inactive),13.4 µM (inactive),,13.3 µM (inactive),3.61 µM (inactive),9.23 µM (inactive),13.9 µM (inactive),7.94 µM (inactive),11.5 µM (inactive),7.28 µM (inactive),12.9 µM (inactive),14.5 µM (inactive),4.5 µM (inactive),4.14 µM (inactive),16.8 µM (inactive),15 µM (inactive),,,,
O=P(Oc1ccc2ccccc2c1)(N1CC1)N1CC1,4.84 µM (inactive),5.62 µM (inactive),,92.3 µM (inactive),26.4 µM (inactive),> 100 µM (inactive),11.4 µM (inactive),2.15 µM (inactive),10.9 µM (inactive),17.6 µM (inactive),68.1 µM (inactive),,,67.9 µM (inactive),38.2 µM (inactive),26.9 µM (inactive),,,,
COc1ccc(C2SCC(=O)N2NC(=O)C(C)Oc2ccccc2C)cc1 (stereo not given),> 100 µM (inactive),61.4 µM (inactive),> 100 µM (inactive),,28.7 µM (inactive),95.9 µM (inactive),> 100 µM (inactive),> 100 µM (inactive),60.8 µM (inactive),> 100 µM (inactive),92.7 µM (inactive),53 µM (inactive),> 100 µM (inactive),> 100 µM (inactive),> 100 µM (inactive),> 100 µM (inactive),> 100 µM (inactive),47.5 µM (inactive),86.7 µM (inactive),46.3 µM (inactive)
N#Cc1c2c(c(N=P(c3ccccc3)(c3ccccc3)c3ccccc3)n3c1nc1ccccc13)CCCC2,44 µM (inactive),21.3 µM (inactive),30 µM (inactive),32.8 µM (inactive),3.86 µM (inactive),14.7 µM (inactive),30.8 µM (inactive),> 100 µM (inactive),12.8 µM (inactive),45.1 µM (inactive),16.6 µM (inactive),10.8 µM (inactive),24.5 µM (inactive),,15.5 µM (inactive),11.9 µM (inactive),,,,
